In assay [1] the target is T1, Carbonic anhydrase 2 (Homo sapiens, UniProt P00918). Put plainly: ChEBML_1523541. The following applies: 25 °C. As for the experimental part: (§1) Inhibition of human recombinant carbonic anhydrase 2 preincubated for 15 mins at room temperature/6 hrs at 4 deg C by stopped-flow CO2 hydration assay
Assay [2] has as its target T2, Carbonic anhydrase 1 (Homo sapiens, UniProt P00915). Put plainly: ChEBML_1523540. The note with it: 25 °C. As for the experimental part:
Inhibition of human recombinant carbonic anhydrase 1 preincubated for 15 mins at room temperature/6 hrs at 4 deg C by stopped-flow CO2 hydration assay

Assay [3] has as its target T3, Carbonic anhydrase 12 (Homo sapiens, UniProt O43570). Kind of assay: ChEBML_1523544. The following applies: 25 °C. As for the experimental part: (§2) Inhibition of human recombinant carbonic anhydrase 12 preincubated for 15 mins at room temperature/6 hrs at 4 deg C by stopped-flow CO2 hydration assay
For assay [4], the target named is T2, Carbonic anhydrase 1. Put plainly: Inhibition of human recombinant carbonic anhydrase 1.
Assay [5] has as its target T3, Carbonic anhydrase 12. Described as §2. The following applies: 25 °C.
The target in assay [6] is T1, Carbonic anhydrase 2. The assay is described as §1. The following applies: 25 °C.

The term Ki denotes the equilibrium dissociation constant of an inhibitor or competing ligand from its target.

T3 sequence (O43570 whole entry): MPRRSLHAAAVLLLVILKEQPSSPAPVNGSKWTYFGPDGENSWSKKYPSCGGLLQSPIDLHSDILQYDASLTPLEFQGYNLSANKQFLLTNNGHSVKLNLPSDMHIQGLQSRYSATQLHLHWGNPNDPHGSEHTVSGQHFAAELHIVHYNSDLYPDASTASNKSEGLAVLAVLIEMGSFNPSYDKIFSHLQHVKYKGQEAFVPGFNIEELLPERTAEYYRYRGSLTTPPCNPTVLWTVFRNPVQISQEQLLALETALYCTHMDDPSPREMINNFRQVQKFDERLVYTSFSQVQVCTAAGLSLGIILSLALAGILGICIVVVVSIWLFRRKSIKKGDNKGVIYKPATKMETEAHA
T2 sequence (P00915 whole entry): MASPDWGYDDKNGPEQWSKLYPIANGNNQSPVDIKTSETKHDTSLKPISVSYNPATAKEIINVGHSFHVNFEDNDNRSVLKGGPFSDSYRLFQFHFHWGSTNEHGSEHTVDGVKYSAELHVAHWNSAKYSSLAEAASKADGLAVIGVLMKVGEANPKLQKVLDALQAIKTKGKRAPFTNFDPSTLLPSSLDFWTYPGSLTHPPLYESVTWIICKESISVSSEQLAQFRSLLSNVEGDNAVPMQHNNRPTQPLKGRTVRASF

Turning to `O=c1cc(O)cc2oc(-c3ccc(O)c(O)c3)c(O[C@@H]3O[C@H](CO)[C@@H](O)[C@H](O)[C@H]3O)c(O)c1-2` [Quercetin 3-O-beta-D-glucoside], the Ki was 6.21 µM at Carbonic anhydrase 2 [1]; more than 10 µM on Carbonic anhydrase 1 [2]; 0.0521 µM on Carbonic anhydrase 12 [3]; more than 10 µM on Carbonic anhydrase 1 [4]; 0.052 µM at Carbonic anhydrase 12 [5]; 6.21 µM on Carbonic anhydrase 2 [6].

The values above are taken from BindingDB's records for doi:10.1016/j.bmc.2015.10.018 (Aristotle University of Thessaloniki, 2015).
